# Read-outs that look alike come from different tables or passages of the source.
# Tests used:
# [1] = biological target: T1, mouse adult α1β1εδ nAChR (Mus musculus, UniProt P02716+P04756+P09690+P20782); assay: cell-based; assay type: cell-based
# [2] = biological target: α1β3γ2 GABAAR (Mus musculus, UniProt P62812+P63080); assay type: binding
# [3] = biological target: mouse α3β2γ2 GABAAR (Mus musculus, UniProt P22723+P26049+P63137); assay: cell-based; settings: for inhibition at 100 µM: read-out: inhibition of GABA-evoked currents
# [4] = biological target: human α7 nAChR (Homo sapiens, UniProt P36544); assay: cell-based
# [5] = biological target: T1, mouse adult α1β1εδ nAChR; assay type: cell-based
# [6] = biological target: T2, mouse 5-HT3AR (Mus musculus, UniProt P23979); assay: cell-based; assay type: cell-based
# [7] = biological target: T2, mouse 5-HT3AR; settings: cited from earlier work
# [8] = tested on: human 5-HT3AR; settings: cited from earlier work
# [9] = tested on: GABAAR; settings: cited from earlier work
# [10] = tested on: end-plate muscle type nAChRs; settings: cited from earlier work
compound,measurement,setting,value
COc1cc2c(cc1O)[C@@H](Cc1ccc(O)c(Oc3cc4c(cc3OC)CCN[C@H]4Cc3ccc(O)cc3)c1)NCC2 [BBIQA1],IC50,[1],0.75 µM
same,nH (Hill slope),[1],-0.96 ± 0.16
same,competition with Alexa Fluor 546 αCtx binding (in words),[2],comparable affinities
same,inhibition at 100 µM,[3],40 to 50%
same,IC50,[4],1.7 µM
same,nH (Hill slope),[4],-0.83 ± 0.17
same,effect on maximal acetylcholine response (in words),[5],reduces the maximal acetylcholine response
same,IC50,[6],0.119 µM
same,fold less active than d-TC,[6],5 fold
same,nH (Hill slope),[6],-1.06 ± 0.09
COc1ccc2cc1Oc1cc3c(cc1O)CCN[C@H]3Cc1ccc(cc1)Oc1c(O)c(OC)cc3c1[C@@H](C2)[N+](C)(C)CC3 [BBIQA2],IC50,[1],1.75 µM
same,fold less potent than BBIQA1 and d-TC,[1],~ 2 fold
same,nH (Hill slope),[1],-1.04 ± 0.21
same,competition with Alexa Fluor 546 αCtx binding (in words),[2],comparable affinities
same,inhibition at 100 µM,[3],40 to 50%
same,IC50,[4],3.08 µM
same,nH (Hill slope),[4],-0.94 ± 0.29
same,effect on maximal acetylcholine response (in words),[5],reduces the maximal acetylcholine response
same,IC50,[6],1.97 µM
same,fold less active than d-TC,[6],87 fold
same,nH (Hill slope),[6],-1.83 ± 0.01
"COc1cc2c3cc1Oc1cc(ccc1O)C[C@@H]1c4c(cc(OC)c(O)c4Oc4ccc(cc4)C[C@@H]3N(C)CC2)CC[N+]1(C)C [d-TC, d-tubocurarine, reference compound]",IC50,[7],0.0114 to 0.013 µM
same,IC50,[1],0.81 µM
same,nH (Hill slope),[1],-1.87 ± 0.41
same,IC50,[8],1.8 µM
same,inhibition of GABAAR (in words),[9],inhibits GABAAR
same,competition with Alexa Fluor 546 αCtx binding (in words),[2],comparable affinities
same,inhibition of GABA-evoked currents,[3],almost completely inhibited
same,inhibition at 100 µM,[3],90%
same,fold higher affinity of orthosteric α/ε (or α/γ) site than orthosteric α/δ site,[10],100 fold
same,IC50,[4],2.03 µM
same,nH (Hill slope),[4],-1.39 ± 0.21
same,effect on maximal acetylcholine response (in words),[5],reduces the maximal acetylcholine response
same,IC50,[6],0.0226 µM
same,nH (Hill slope),[6],-1.19 ± 0.21
"α-bungarotoxin [αBgt, reference compound]",effect on maximal acetylcholine response (in words),[5],did not observe any reduction in the maximal amplitude
